Data taken from US11286239B2, “Angiotensin II receptor 2 antagonist salt form and crystalline form, and preparation method therefor” (SHANDONG DANHONG PHARMACEUTICAL CO., LTD., priority 2018, dated 2022).

Key:
[1] = Solid stability test; format: physicochemical
Protocol: […] The samples placed at the conditions of high temperature (60° C.) and high humidity (92.5% humidity, room temperature) were taken to test XRPD and purity on the 5th day and 10 days. Samples placed at high temperature and high humidity (40° C./75% humidity, 60° C./75% humidity) were taken to test XRPD and purity on the 10th day, 1 month, 2 months, and 3 months. The samples placed under light irradiation conditions were taken for testing when a total illuminance reached 1.2×10^6 Lux·hr. The test results are compared with the beginning test results of 0 day.

[2] = Hygroscopicity study by dynamic vapor sorption (DVS); format: physicochemical; settings: 25° C. and 80% RH
Protocol: Test conditions: a sample (10-15 mg) is placed in DVS sample tray for testing.
Balance: dm/dt=0.01%/min (shortest: 10 min, longest: 180 min)
Drying: drying for 120 min at 0% RH
RH (%) test gradient: 10%
RH (%) test gradient range: 0%-90%-0%
The hygroscopicity property is evaluated and classified as follows: […]

[3] = 40° C., relative humidity 75%, open, 1M
[4] = 40° C., relative humidity 75%, open, 2M
[5] = 40° C., relative humidity 75%, open, 3M
[6] = 40° C., relative humidity 75%, open, 10 days
[7] = 60° C., relative humidity 75%, open, 1M
[8] = 60° C., relative humidity 75%, open, 2M
[9] = 60° C., relative humidity 75%, open, 3M
[10] = 60° C., relative humidity 75%, open, 10 days
[11] = High humidity (room temperature/relative humidity 92.5%, open), 5 days
[12] = High humidity (room temperature/relative humidity 92.5%, open), 10 days
[13] = High temperature (60° C., open), 5 days
[14] = High temperature (60° C., open), 10 days
[15] = Light irradiation (total illuminance of 1.2 × 10^6 Lux·hr/near ultraviolet 200 w·hr/m^2, open)

Crystalline form (XRPD) ([1]; 0 day): Crystalline form “B”
Purity ([1]; 0 day): 99.89%
Crystalline form (XRPD) [1, 3]: Crystalline form “B”
Purity [1, 3]: 99.92%
Crystalline form (XRPD) [1, 4]: Crystalline form “B”
Purity [1, 4]: 99.87%
Crystalline form (XRPD) [1, 5]: Crystalline form “B”
Purity [1, 5]: 99.87%
Crystalline form (XRPD) [1, 6]: Crystalline form “B”
Purity [1, 6]: 99.93%
Crystalline form (XRPD) [1, 7]: Crystalline form “B”
Purity [1, 7]: 99.90%
Crystalline form (XRPD) [1, 8]: Crystalline form “B”
Purity [1, 8]: 99.78%
Crystalline form (XRPD) [1, 9]: Crystalline form “B”
Purity [1, 9]: 99.80%
Crystalline form (XRPD) [1, 10]: Crystalline form “B”
Purity [1, 10]: 99.92%
Crystalline form (XRPD) [1, 11]: Crystalline form “B”
Purity [1, 11]: 99.93%
Crystalline form (XRPD) [1, 12]: Crystalline form “B”
Purity [1, 12]: 99.92%
Crystalline form (XRPD) [1, 13]: Crystalline form “B”
Purity [1, 13]: 99.93%
Crystalline form (XRPD) [1, 14]: Crystalline form “B”
Purity [1, 14]: 99.93%
Crystalline form (XRPD) [1, 15]: Crystalline form “B”
Purity [1, 15]: 99.96%
Classification of hygroscopicity [2]: almost no hygroscopicity
ΔW, weight gain caused by hygroscopicity [2]: 0.05327%
Structure (SMILES): COc1ccc2c(c1OCc1ccccc1)C[C@@H](C(=O)O)N(C(=O)[C@@H](OC1CCCC1)c1ccccc1)C2 [crystalline form “B”]
Solid stability conclusion ([1]; high temperature, high humidity, strong light and accelerated conditions): good crystal stability and good chemical stability
